{
  "source": "patent US20240150363A1",
  "about": "“COELENTERAZINE ANALOGUES” (Promega Corporation, priority 2022, published 2024)",
  "key": {"[1]": {"test": "Systematic stability study of formulated Compound 6 reconstitution in buffers, LC-MS", "type": "physicochemical", "description": "In addition to the stability experiments in Example 3, an additional systematic, controlled, and comprehensive stability study was conducted to evaluate the stability of formulated Compound 6 in various buffer formulation. Briefly, 4.2 μmol of Compound 6 was reconstituted in 1 mL of each buffer at the concentration and pH outlined in Table 1. Concentration and purity were determined by LC-MS. Briefly, 1 μL of sample was injected into an Eclipse RRHD C8 (50×2; 1 mm; 1.8 micron; λ=254 nm) with an aqueous mobile phase of 0.1% TFA in Nanopure water and an organic mobile phase of acetonitrile."}, "[2]": {"test": "Stability of formulated Compound 6 (P-407 cake) in reconstitution buffers, LC-MS", "type": "physicochemical", "description": "Experiments were conducted during development of embodiments herein to evaluate the stability of Compound 6 in various reconstitution buffer formulation. Briefly, 12 mg of Poloxamer 407 (P-407) was melted at 70˜75° C., and 4.2 μmol of Compound 6 was dissolved in 1 mL EtOH, followed by transferring the resulting solution to the melted P-407. The resulting mixture was rotated at 65˜75° C. to afford a homogeneous solution. The resulting solution was concentrated in vacuo and resuspended in 6 ml MQ water. 1 mL aliquots of the resuspended Compound 6 was then distributed into sample vials, frozen, and lyophilized to afford a formulated cake. Sample formulated cakes were then reconstituted in DPBS, HEPES, or Tris (pH 6.5, 7.5, or 8.0) buffers. Stability and purity were determined by LC-MS."}, "[3]": {"tested_on": "chimera (HT178-cpNLuc-179)", "test": "Bioluminescence of HeLa cells transiently expressing chimera", "type": "cell-based", "settings": "substrate 10 μM, 1 min, compared to Furimazine and FluoroFurimazine", "description": "(§1) Additional experiments were conducted during development of embodiments herein to evaluate the influence of Furimazine analogs on the intensity of bioluminescence produced by transiently expressed NLuc-HaloTag fusion or chimera (i.e., HT178-cpNLuc-179, generated by insertion of cpNLuc into HaloTag). Briefly, HeLa cells diluted to 2.2×10^5 cells/mL in OptiMEM+2% serum were transfected with DNA encoding either NLuc-HaloTag fusion or chimera, plated in 96-well at 90 μL/well, and incubated overnight at 37° C.+5% CO2. Next day, cells were treated with substrate at a final concentration of 10 μM and incubated for 1 min before measurements of total bioluminescence on a GloMax® Discover plate reader (Promega; n=3) or measurements of bioluminescence intensity across 400-600 nm on an Infinite M1000 plate reader (Tecan; n=1)."}, "NLuc-HaloTag fusion [4]": {"target": "T1, NLuc-HaloTag fusion (Oplophorus gracilirostris, UniProt Q9GV45, A31E/A60N/A81I/F95D/I117V/K70R/L54V/L99Q/M102K/N193R/P142E/Q151K/Q38R/Q45L/V71I/Y165I)", "T1 construct": "HaloTag (fusion partner)", "T1 sequence (Q9GV45 other isoform, or with tags, fused parts or gaps with the stated changes)": "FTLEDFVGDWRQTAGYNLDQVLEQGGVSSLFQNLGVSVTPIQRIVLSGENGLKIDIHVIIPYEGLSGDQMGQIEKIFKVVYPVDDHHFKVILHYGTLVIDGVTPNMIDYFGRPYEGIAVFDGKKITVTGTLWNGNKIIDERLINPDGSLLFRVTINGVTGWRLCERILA", "test": "Bioluminescence of HeLa cells transiently expressing NLuc-HaloTag fusion", "type": "cell-based", "settings": "substrate 10 μM, 1 min, compared to Furimazine and FluoroFurimazine", "description": "as §1"}, "[5]": {"tested_on": "chimera (HT178-cpNLuc-179)", "test": "Total bioluminescence of purified chimera with substrate", "type": "biochemical", "settings": "purified chimera 6 nM, substrate 20 μM, 1 min; compared to Furimazine and FluoroFurimazine", "description": "(§2) Experiments were conducted during development of embodiments herein to evaluate the influence of Furimazine analogs on the intensity of bioluminescence produced by either purified NLuc-HaloTag fusion or purified chimera (i.e., HT178-cpNLuc-179, generated by insertion of cpNLuc into HaloTag). Briefly, purified NLuc-HaloTag fusion or chimera was diluted in TBS+0.1% BSA to a final concentration of 6 nM, treated with substrate at a final concentration of 20 μM, and incubated for 1 min before measurements of total bioluminescence on a GloMax® Discover plate reader (Promega; n=3) or measurements of bioluminescence intensity across 400-600 nm on an Infinite M1000 plate reader (Tecan; n=1)."}, "NLuc-HaloTag fusion [6]": {"target": "T1, NLuc-HaloTag fusion", "test": "Total bioluminescence of purified NLuc-HaloTag fusion with substrate", "type": "biochemical", "settings": "purified NLuc-HaloTag fusion 6 nM, substrate 20 μM, 1 min; compared to Furimazine and FluoroFurimazine", "description": "as §2"}, "[7]": {"settings": "reconstituted using glycerol (2%)"}},
  "data": [
    {"molecule": "O=c1c(Cc2ccco2)nc2c(Cc3ccccc3F)[nH]c(-c3cccc(F)c3F)cn1-2", "note": "[Compound 6, 6-(2,3-difluorophenyl)-8-(2-fluorobenzyl)-2-(furan-2-ylmethyl)imidazo[1,2-a]pyrazin-3(7H)-one]", "values": [
      {"measurement": "preservation based on purity and concentration data", "setting": "[1]; in Tris (pH=8) buffer", "result": "well-preserved"},
      {"measurement": "preservation based on purity and concentration data", "setting": "[1]; in saline", "result": "well-preserved"},
      {"measurement": "preservation based on purity and concentration data", "setting": "[1]; in water", "result": "well-preserved"},
      {"measurement": "precipitation / solubility", "setting": "[1]; reconstituted using DPBS (pH 7.0)", "result": "visible precipitation"},
      {"measurement": "precipitation / solubility", "setting": "[1]; reconstituted using Tris (pH=6.5)", "result": "visible precipitation"},
      {"measurement": "purity over a 6-hour period", "setting": "[1]; reconstituted using Tris (pH=8)", "result": "greater than 90%"},
      {"measurement": "purity over a 6-hour period", "setting": "[1]; reconstituted using acetate (sodium acetate pH 5.2)", "result": "greater than 90%"},
      {"measurement": "precipitation / solubility", "setting": "[1]; reconstituted using bicarbonate (pH 9.5)", "result": "visible precipitation"},
      {"measurement": "purity over a 6-hour period", "setting": "[1]; reconstituted using citrate (pH 6.0)", "result": "greater than 90%"},
      {"measurement": "precipitation / solubility", "setting": "[1]; [7]", "result": "visible precipitation"},
      {"measurement": "purity over a 6-hour period", "setting": "[1]; [7]", "result": "greater than 90%"},
      {"measurement": "purity over a 6-hour period", "setting": "[1]; reconstituted using saline (0.9%)", "result": "greater than 90%"},
      {"measurement": "purity over a 6-hour period", "setting": "[1]; reconstituted using water", "result": "greater than 90%"},
      {"measurement": "stability and purity", "setting": "[2]; reconstituted in DPBS", "result": "lowest stability and purity"},
      {"measurement": "purity after 3 h", "setting": "[2]; reconstituted in HEPES", "result": "about 50%"},
      {"measurement": "stability", "setting": "[2]; reconstituted in HEPES", "result": "improved stability compared to DPBS"},
      {"measurement": "purity after 3 h", "setting": "[2]; reconstituted in Tris buffer", "result": "~90", "unit": "%"},
      {"measurement": "stability", "setting": "[2]; reconstituted in Tris buffer", "result": "highest stability"}
    ]},
    {"molecule": "Cc1ccc(Cc2nc3c(Cc4ccccc4F)[nH]c(-c4cccc(F)c4F)cn-3c2=O)o1", "note": "[Compound 10, 6-(2,3-difluorophenyl)-8-(2-fluorobenzyl)-2-((5-methylfuran-2-yl)methyl)imidazo[1,2-a]pyrazin-3(7H)-one]", "values": [
      {"measurement": "bioluminescence signal as a substrate", "setting": "[3]", "result": "significantly brighter signal"},
      {"measurement": "bioluminescence signal as a substrate", "setting": "NLuc-HaloTag fusion [4]", "result": "significantly brighter signal"},
      {"measurement": "bioluminescence signal as a substrate", "setting": "[5]", "result": "significantly brighter signal"},
      {"measurement": "bioluminescence signal as a substrate", "setting": "NLuc-HaloTag fusion [6]", "result": "significantly brighter signal"}
    ]}
  ]
}
